# US20230407243A1, “GENETIC PLATFORM TO INVESTIGATE THE FUNCTIONS OF BACTERIAL DRUG EFFLUX PUMPS” (priority 2022, published 2023)
# How the values were obtained:
# Assay type in all cases: cell-based, Escherichia coli
# [1] = test system: E. coli EKO-35; assay: microbe, parasite or virus in culture; conditions: for Fold change of MICs: EKO-35 compared to EKO-35 (reference); for Minimum inhibitory concentration (MIC), EKO-35: Table 10, without pore; for Minimum inhibitory concentration (MIC), EKO-35 / Minimum Inhibitory Concentration, EKO-35: technical duplicate; for Minimum Inhibitory Concentration, EKO-35: Table 13A, non-porinated
# Method in brief: (§1)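 MIC derived from pre-incubation-corrected OD600 after 18 h growth at 37° C. (900 rpm) in MHB II. Inoculum was cells from 18 h LB culture adjusted to OD600 ~1.0 in PBS, then diluted 1/2000; compounds two-fold serially titrated in duplicate, DMSO as solvent control.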
# [2] = test system: E. coli ΔtolC; assay: microbe, parasite or virus in culture; conditions: technical duplicate; for Minimum inhibitory concentration (MIC), ΔtolC: Table 10, without pore; for Minimum Inhibitory Concentration, ΔtolC: Table 13A, non-porinated
# Method in brief: as §1
# [3] = test system: wild-type E. coli K-12 str. BW25113; assay: microbe, parasite or virus in culture; conditions: technical duplicate; for Minimum inhibitory concentration (MIC), K-12: Table 10, without pore; for Minimum Inhibitory Concentration, K-12: Table 13A, non-porinated
# Method in brief: as §1
# [4] = test system: EKO-35 araC::acrBD408A; assay: MIC susceptibility profiling, efflux platform; conditions: for Fold change of MICs: EKO-35 araC::acrBD408A compared to EKO-35; for Minimum Inhibitory Concentration, EKO-35 araC::acrBD408A: Table 13B, non-porinated, technical duplicate
# Method in brief: as §1
# [5] = test system: EKO-35 araC::acrEF; assay: MIC susceptibility profiling, efflux platform; conditions: for Fold change of MICs: EKO-35 araC::acrEF compared to EKO-35; for Minimum Inhibitory Concentration, EKO-35 araC::acrEF: Table 13A, non-porinated, technical duplicate
# Method in brief: as §1
# [6] = test system: EKO-35 araC::mdtBC; assay: MIC susceptibility profiling, efflux platform; conditions: for Fold change of MICs: EKO-35 araC::mdtBC compared to EKO-35; for Minimum Inhibitory Concentration, EKO-35 araC::mdtBC: Table 13B, non-porinated, technical duplicate
# Method in brief: as §1
# [7] = test system: wild-type (WT) K-12-Pore; assay: microbe, parasite or virus in culture; conditions: technical duplicate; for Minimum inhibitory concentration (MIC), Pore K-12: Table 10, with pore; for Minimum inhibitory concentration, K-12 (WT)-Pore: Table 14A, porinated
# Method in brief: (§2)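 MIC values come from background-corrected OD600 readings (pre-incubation OD subtracted) after 18 h at 37 °C and 900 rpm in MHB II. Compounds were tested in duplicate as 2-fold dilutions. The inoculum came from 18 h LB cultures adjusted to OD600 ~1.0 and diluted 1/2000, and the pore-bearing strains were vancomycin-checked beforehand.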
# [8] = test system: ΔtolC-Pore; assay: microbe, parasite or virus in culture; conditions: technical duplicate; for Minimum inhibitory concentration (MIC), Pore ΔtolC: Table 10, with pore; for Minimum inhibitory concentration, ΔtolC-Pore: Table 14A, porinated
# Method in brief: as §2
# [9] = test system: EKO-35-Pore; assay: MIC susceptibility profiling, porinated strain; conditions: for Fold changes of MICs: EKO-35-Pore compared to EKO-35-Pore (reference); for Minimum inhibitory concentration (MIC), Pore EKO-35: Table 10, with pore; for Minimum inhibitory concentration (MIC), Pore EKO-35 / Minimum inhibitory concentration, EKO-35-Pore: technical duplicate; for Minimum inhibitory concentration, EKO-35-Pore: Table 14A, porinated
# Method in brief: as §2
# [10] = test system: EKO-35 araC::acrB Pore; assay: MIC susceptibility profiling, porinated efflux platform; conditions: for Fold changes of MICs: EKO-35 araC::acr-B Pore compared to EKO-35-Pore; for Minimum inhibitory concentration, EKO-35 araC::acrB Pore: Table 14A, porinated, technical duplicate
# Method in brief: as §2
# [11] = test system: EKO-35 araC::acrBD408A Pore; assay: as above; conditions: for Fold changes of MICs: EKO-35 araC::acrBD408A Pore compared to EKO-35-Pore; for Minimum inhibitory concentration: EKO-35 araC::acrBD408A Pore, technical duplicate
# Method in brief: as §2
# [12] = test system: EKO-35 araC::acrD Pore; assay: as above; conditions: for Fold changes of MICs: EKO-35 araC::acrD Pore compared to EKO-35-Pore; for Minimum inhibitory concentration, EKO-35 araC::acrD Pore: Table 14A, porinated, technical duplicate
# Method in brief: as §2
# [13] = test system: EKO-35 araC::acrEF Pore; assay: as above; conditions: for Fold changes of MICs: EKO-35 araC::acrEF Pore compared to EKO-35-Pore; for Minimum inhibitory concentration, EKO-35 araC::acrEF Pore: Table 14A, porinated, technical duplicate
# Method in brief: as §2
# [14] = test system: EKO-35 araC::emrAB Pore; assay: as above; conditions: for Fold changes of MICs: EKO-35 araC::emrAB Pore compared to EKO-35-Pore; for Minimum inhibitory concentration: EKO-35 araC::emrAB Pore, technical duplicate; for efflux pump-mediated resistance vs EKO-35-Pore: EmrAB, porinated strain
# Method in brief: as §2
# [15] = test system: EKO-35 araC::emrKY Pore; assay: as above; conditions: for Fold changes of MICs: EKO-35 araC::emrKY Pore compared to EKO-35-Pore; for Minimum inhibitory concentration: EKO-35 araC::emrKY Pore, technical duplicate
# Method in brief: as §2
# [16] = test system: EKO-35 araC::macAB Pore; assay: as above; conditions: for Fold changes of MICs: EKO-35 araC::macAB Pore compared to EKO-35-Pore; for Minimum inhibitory concentration: EKO-35 araC::macAB Pore, technical duplicate
# Method in brief: as §2
# [17] = test system: EKO-35 araC::mdtBC Pore; assay: as above; conditions: for Fold changes of MICs: EKO-35 araC::mdtBC Pore compared to EKO-35-Pore; for Minimum inhibitory concentration: EKO-35 araC::mdtBC Pore, technical duplicate
# Method in brief: as §2
# [18] = test system: EKO-35 araC::mdtEF Pore; assay: as above; conditions: for Fold changes of MICs: EKO-35 araC::mdtEF Pore compared to EKO-35-Pore; for Minimum inhibitory concentration, EKO-35 araC::mdtEF Pore: Table 14A, porinated, technical duplicate
# Method in brief: as §2
# [19] = test system: EKO-35 araC::mexCD Pore; assay: as above; conditions: for Fold changes of MICs: EKO-35 araC::mexCD Pore compared to EKO-35-Pore; for Minimum inhibitory concentration: EKO-35 araC::mexCD Pore, technical duplicate
# Method in brief: as §2
smiles,measurement,setting,value
N#CC(C#N)=NNc1cccc(Cl)c1 [CCCP],Fold change of MICs,[1],1 fold
same,"Minimum inhibitory concentration (MIC), EKO-35",[1],12.5 µg/mL
same,"Minimum Inhibitory Concentration, EKO-35",[1],12.5 µg/mL
same,"Minimum inhibitory concentration (MIC), ΔtolC",[2],0.781 µg/mL
same,"Minimum Inhibitory Concentration, ΔtolC",[2],0.781 µg/mL
same,"Minimum inhibitory concentration (MIC), K-12",[3],25 µg/mL
same,"Minimum Inhibitory Concentration, K-12",[3],25 µg/mL
same,Fold change of MICs,[4],1 fold
same,"Minimum Inhibitory Concentration, EKO-35 araC::acrBD408A",[4],12.5 µg/mL
same,Fold change of MICs,[5],1 fold
same,"Minimum Inhibitory Concentration, EKO-35 araC::acrEF",[5],12.5 µg/mL
same,Fold change of MICs,[6],1 fold
same,"Minimum Inhibitory Concentration, EKO-35 araC::mdtBC",[6],12.5 µg/mL
same,"Minimum inhibitory concentration (MIC), Pore K-12",[7],12.5 µg/mL
same,"Minimum inhibitory concentration, K-12 (WT)-Pore",[7],12.5 µg/mL
same,"Minimum inhibitory concentration (MIC), Pore ΔtolC",[8],0.391 µg/mL
same,"Minimum inhibitory concentration, ΔtolC-Pore",[8],0.391 µg/mL
same,Fold changes of MICs,[9],1 fold
same,"Minimum inhibitory concentration (MIC), Pore EKO-35",[9],6.25 µg/mL
same,"Minimum inhibitory concentration, EKO-35-Pore",[9],6.25 µg/mL
same,Fold changes of MICs,[10],1 fold
same,"Minimum inhibitory concentration, EKO-35 araC::acrB Pore",[10],6.25 µg/mL
same,Fold changes of MICs,[11],1 fold
same,Minimum inhibitory concentration,[11],6.25 µg/mL
same,Fold changes of MICs,[12],1 fold
same,"Minimum inhibitory concentration, EKO-35 araC::acrD Pore",[12],6.25 µg/mL
same,Fold changes of MICs,[13],1 fold
same,"Minimum inhibitory concentration, EKO-35 araC::acrEF Pore",[13],3.125 µg/mL
same,Fold changes of MICs,[14],2 fold
same,Minimum inhibitory concentration,[14],12.5 µg/mL
same,efflux pump-mediated resistance vs EKO-35-Pore,[14],no longer provided resistance
same,Fold changes of MICs,[15],1 fold
same,Minimum inhibitory concentration,[15],6.25 µg/mL
same,Fold changes of MICs,[16],1 fold
same,Minimum inhibitory concentration,[16],6.25 µg/mL
same,Fold changes of MICs,[17],2 fold
same,Minimum inhibitory concentration,[17],12.5 µg/mL
same,Fold changes of MICs,[18],1 fold
same,"Minimum inhibitory concentration, EKO-35 araC::mdtEF Pore",[18],6.25 µg/mL
same,Fold changes of MICs,[19],1 fold
same,Minimum inhibitory concentration,[19],6.25 µg/mL
COC(=O)c1sc(N2CCCC2)c(C#N)c1-c1cccs1 [compound 10],Fold change of MICs,[1],1 fold
same,"Minimum inhibitory concentration (MIC), EKO-35",[1],160 µg/mL
same,"Minimum Inhibitory Concentration, EKO-35",[1],160 µg/mL
same,"Minimum inhibitory concentration (MIC), ΔtolC",[2],10 µg/mL
same,"Minimum Inhibitory Concentration, ΔtolC",[2],10 µg/mL
same,"Minimum inhibitory concentration (MIC), K-12",[3],160 µg/mL
same,"Minimum Inhibitory Concentration, K-12",[3],160 µg/mL
same,Fold change of MICs,[4],1 fold
same,"Minimum Inhibitory Concentration, EKO-35 araC::acrBD408A",[4],160 µg/mL
same,Fold change of MICs,[5],1 fold
same,"Minimum Inhibitory Concentration, EKO-35 araC::acrEF",[5],160 µg/mL
same,Fold change of MICs,[6],1 fold
same,"Minimum Inhibitory Concentration, EKO-35 araC::mdtBC",[6],160 µg/mL
same,"Minimum inhibitory concentration (MIC), Pore K-12",[7],160 µg/mL
same,"Minimum inhibitory concentration, K-12 (WT)-Pore",[7],160 µg/mL
same,"Minimum inhibitory concentration (MIC), Pore ΔtolC",[8],5 µg/mL
same,"Minimum inhibitory concentration, ΔtolC-Pore",[8],5 µg/mL
same,Fold changes of MICs,[9],1 fold
same,"Minimum inhibitory concentration (MIC), Pore EKO-35",[9],10 µg/mL
same,"Minimum inhibitory concentration, EKO-35-Pore",[9],10 µg/mL
same,efflux pump-mediated resistance vs EKO-35-Pore,[10]; AcrB with the pore,increased resistance
same,Fold changes of MICs,[10],16 fold
same,"Minimum inhibitory concentration, EKO-35 araC::acrB Pore",[10],160 µg/mL
same,Fold changes of MICs,[11],1 fold
same,Minimum inhibitory concentration,[11],10 µg/mL
same,Fold changes of MICs,[12],16 fold
same,"Minimum inhibitory concentration, EKO-35 araC::acrD Pore",[12],160 µg/mL
same,efflux pump-mediated resistance vs EKO-35-Pore,[13]; AcrEF with the pore,increased resistance
same,Fold changes of MICs,[13],16 fold
same,"Minimum inhibitory concentration, EKO-35 araC::acrEF Pore",[13],160 µg/mL
same,Fold changes of MICs,[14],16 fold
same,Minimum inhibitory concentration,[14],160 µg/mL
same,efflux pump-mediated resistance vs EKO-35-Pore,[14],associated with resistance
same,Fold changes of MICs,[15],1 fold
same,Minimum inhibitory concentration,[15],10 µg/mL
same,Fold changes of MICs,[16],1 fold
same,Minimum inhibitory concentration,[16],10 µg/mL
same,Fold changes of MICs,[17],1 fold
same,Minimum inhibitory concentration,[17],10 µg/mL
same,Fold changes of MICs,[18],16 fold
same,efflux pump-mediated resistance vs EKO-35-Pore,[18]; MdtEF with the pore,increased resistance
same,"Minimum inhibitory concentration, EKO-35 araC::mdtEF Pore",[18],160 µg/mL
same,Fold changes of MICs,[19],16 fold
same,Minimum inhibitory concentration,[19],160 µg/mL
same,efflux pump-mediated resistance vs EKO-35-Pore,"[19]; MexCD, OM compromised",increased resistance
